Where “and” joins values, the source holds several entries; their conditions need not be identical. Equal values may be shown once. One block for each molecule: values may come before it.
Tests used:
SmKRS [1] = target: T1, SmKRS (Schistosoma mansoni, UniProt A0A3Q0KK01); experiment: Isothermal titration calorimetry, SmKRS; type: binding; settings: 30°C
Method: (§1) ITC experiments were conducted at 30°C in the MicroCal ITC-200 apparatus (GE Healthcare) and results were fitted into graph using Microcal origin software. […] For LlKRS, titrations consisted of 0.4 μl of first injection followed by 39 injections of 1 μl with 150 s intervals between injections. For SmKRS, same titrations were performed with 120 s intervals.

[2] = parameters: method as in PMID 22704625; settings: main limitation as a lead molecule; cited from earlier work
malaria blood stage = test system: malaria blood stage; parameters: method as in PMID 22704625; settings: cited from earlier work
malaria liver stage = test system: malaria liver stage; parameters: method as in PMID 22704625; settings: cited from earlier work
[3] = target: SmKRS (S. mansoni lysyl-tRNA synthetase), wild type (Schistosoma mansoni, UniProt A0A3Q0KK01); experiment: Aminoacylation enzyme inhibition assay, SmKRS; type: biochemical; settings: 500 nM enzyme, 100 μM ATP, 500 μM L-lysine, 18 μM SmtRNALys, 37°C
Method: Aminoacylation and enzyme inhibition assays for both KRSs were performed as described elsewhere [17, 48]. SmtRNA^Lys was refolded prior to enzyme assays by heating at 70°C for 10 minutes followed by addition of 10 mM MgCl2 and slow cooling to room temperature. Aminoacylation buffer for both worm KRSs contained 30 mM HEPES (pH 7.5), 150 mM NaCl, 30 mM KCl, 50 mM MgCl2, 1mM DTT, 100 μM ATP, 500 μM L-lysine, 18 μM SmtRNA^Lys, 2 U/ml E. coli inorganic pyrophosphatase (NEB) and 500 nM recombinant SmKRS or LlKRS protein at 37°C. Reaction at different time points was stopped by addition of 40 mM EDTA followed by transfer to ice. Recombinant maltose binding protein (MBP) was used as a control.

[4] = target: human counterpart KRS (HsKRS); settings: read-out: Affinity for human counterpart KRS; cited from earlier work
LlKRS [5] = target: T2, LlKRS (Loa loa, UniProt A0A1I7VQ84); experiment: Isothermal titration calorimetry, LlKRS; type: binding; settings: 30°C
Method: as §1

[6] = target: Loa loa lysyl-tRNA synthetase (Loa loa); experiment: SEC; gel permeation chromatography of the purified protein on a column calibrated with high molecular weight standards, protein buffer as mobile phase, 0.5 ml/min; elution at dimer size, no absorbance at tetrameric size
[7] = target: Schistosoma mansoni lysyl-tRNA synthetase (Schistosoma mansoni); experiment: as above
SmKRS [8] = target: T1, SmKRS; experiment: Protein thermal shift assay, SmKRS; type: binding; settings: ligand 20 μM, KRS 2 μM (10:1), 1 mM L-lysine
Method: (§2) Protein melt curve assays for both worm KRSs were performed as reported earlier. Both KRSs were diluted in buffer containing 20 mM Tris (pH 8.0), 200 mM NaCl, 5 mM MgCl2, 1 mM L-lysine and 2 X SYPRO orange dye (Life Technologies). […] Ligand bound and unbound samples of both KRSs were heated from 20 to 96°C at a rate of 1°C min^-1 and fluorescence signals were monitored by StepOnePlus quantitative real-time PCR system (Life Technologies). […] Each curve was an average of three measurements and data were analyzed using thermal shift software (Life technologies). Samples without the addition of ligands were used to determine thermal melting profile of apo proteins. […] Derivative Tm (melting temperature) was used for analysis.

[9] = target: Human-like LlKRS V329Q/S346T mutant (Loa loa, UniProt A0A1I7VQ84); type: binding; settings: ligand 20 μM, KRS 2 μM (ten fold), 1 mM L-lysine
LlKRS [10] = target: T2, LlKRS; experiment: Protein thermal shift assay, LlKRS; type: binding; settings: ligand 20 μM, KRS 2 μM (10:1), 1 mM L-lysine
Method: as §2

n Value (one site model), SmKRS (SmKRS [1]): 0.979 ±0.00
ΔH (ITC), SmKRS (SmKRS [1]): -16.59 ± 0.2013 kcal/mol
ΔS (ITC), SmKRS (SmKRS [1]): -21.7 cal/mol/deg
Kd (SmKRS [1]; PBS pH 7.4, 1 mM L-Lys, 2 mM MgCl2, read-out: Kd (ITC), SmKRS): 62.8 ± 7.8 nM
IC50 [3]: 97 nM and ~97 nM
n Value (one site model), LlKRS (LlKRS [5]): 0.821 ± 0.01
ΔH (ITC), LlKRS (LlKRS [5]): -17.28 ± 0.3965 kcal/mol
ΔS (ITC), LlKRS (LlKRS [5]): -24.9 cal/mol/deg
Molecule: C[C@H]1CCC[C@H](C[C@H]2Cc3cc(O)cc(O)c3C(=O)O2)O1 [cladosporin]
Bioavailability [2]: Poor
IC50 (malaria blood stage): < 100 nM
IC50 (malaria liver stage): < 100 nM
Kd [4]: 3300 nM

stoichiometry N [6]: 2
Molecule: Loa loa lysyl-tRNA synthetase (enzyme)

stoichiometry N [7]: 2
Molecule: Schistosoma mansoni lysyl-tRNA synthetase (enzyme)

Molecule: adenosine 5’-(β, γ-imido) triphosphate [AMPPNP]
Thermal shift of SmKRS (SmKRS [8]): ~ 0.4 °C
Thermal shift of human-like LlKRS [9]: ~ 0.4 °C
Thermal shift of LlKRS (LlKRS [10]): ~ 0.3 °C
